# In publication PMC4105438, “Novel Benzoxazine-Based Aglycones Block Glucose Uptake In Vivo by Inhibiting Glycosidases” (PLoS ONE, 2014):
# What was measured:
# [1] = system: porcine diaphragm; experiment: Glucose uptake study in porcine diaphragm; details: 50 and 100 µM, with and without insulin (1 U), 5 mM glucose
# Protocol: Porcine diaphragm was purchased from a slaughter house, and cleaned using ice cold 0.9% saline several times to remove blood stains. This diaphragm was used for glucose uptake and inhibition by compound 7. Diaphragm (100 mg) was suspended in a 24 well culture plate containing 500 µL saline. In order to initiate the reaction, 5 mM glucose was added to each well. To enhance the glucose uptake by the diaphragm, 1 unit of insulin was used in each well, and the volume was made up to 1 ml with saline. For inhibition studies, compound 7 at a concentration of 50 & 100 µM was used. From each well 100 µL of the assay mixture was aspirated at different time intervals (0, 5, 10, 20, 30 and 60 min). From this, glucose concentration was measured using Glucose oxidase (GOD POD) kit according to the manufacturer’s protocol.
# [2] = biological target: T1, rat intestinal sucrase (Rattus norvegicus, UniProt P23739); experiment: Intestinal α-glucosidase inhibitory assay, sucrose as substrate; format: biochemical
# T1 construct: the supernatant obtained was used as enzyme source; tissue Sigma Aldrich, St. Louis (USA); host or cells: rat intestinal acetone powder (supernatant of the saline homogenate)
# Protocol: (§1) Intestinal α-glucosidase activity was determined by measuring the amount of glucose hydrolyzed from maltose or sucrose. Briefly, rat intestinal acetone powder was homogenized in 0.9% saline and the suspension was centrifuged at 10,000 g for 30 min at 4°C and the supernatant obtained was used as enzyme source. […] After the respective incubation period, reaction was terminated by keeping the samples in boiling water bath for 10 min. The concentration of glucose released from the reaction mixtures was determined by using Glucose oxidase (GOD POD) kit according to the manufacturer’s protocol. Results were expressed as percentage inhibition of intestinal maltase/sucrase activity.
# [3] = system: rat intestinal maltase; experiment: Intestinal α-glucosidase inhibitory assay, maltose as substrate; format: biochemical
# Protocol: as §1
# [4] = system: overnight fasted Wistar rats; experiment: Oral maltose tolerance test; format: in vivo, rat
# Description: (§2) Adult Wistar rats weighing 150–180 g were collected from the University Central Animal Facility and housed under a controlled environment. All animal experiments were approved by the Institutional Animal Ethical Committee (Order No : MGZ/2620/2011-12 Dated 31-01-2012; UOM/IAEC/18/2011), Department of Studies in Zoology, University of Mysore, Mysore and were in accordance with the guidelines of the Committee for the Purpose of Control and Supervision of Experiments on Animals (CPCSEA).
# (§3) The experimental animals were randomly divided into 11 groups each consisting of 5 rats. […] Blood was collected from the tail vein to the tubes containing anticoagulant (2.5% trisodium citrate and 1.37% citric acid in the ratio 1∶5; anti-coagulant: blood) at time point 0 (just before sucrose/maltose administration), and subsequently at 30, 60, 90, 120 and 180 min after substrate (sucrose/maltose) administration. Plasma was separated by centrifuging the samples at 2000 rpm for 10 min and stored at −20°C until analysis. Plasma glucose concentration was determined by using the Glucose oxidase (GOD POD) kit according to the manufacturer’s protocol.
# [5] = biological target: T2, Porcine pancreatic α-amylase (Sus scrofa, UniProt P00690); experiment: α-amylase inhibition assay (starch, DNS reagent); format: biochemical; details: 0–100 µM, pre-incubation 10 min 37°C, pH 6.9; NS = not significant
# T2 construct: purchased SRL, Mumbai (India)
# T2 sequence (P00690 16-511): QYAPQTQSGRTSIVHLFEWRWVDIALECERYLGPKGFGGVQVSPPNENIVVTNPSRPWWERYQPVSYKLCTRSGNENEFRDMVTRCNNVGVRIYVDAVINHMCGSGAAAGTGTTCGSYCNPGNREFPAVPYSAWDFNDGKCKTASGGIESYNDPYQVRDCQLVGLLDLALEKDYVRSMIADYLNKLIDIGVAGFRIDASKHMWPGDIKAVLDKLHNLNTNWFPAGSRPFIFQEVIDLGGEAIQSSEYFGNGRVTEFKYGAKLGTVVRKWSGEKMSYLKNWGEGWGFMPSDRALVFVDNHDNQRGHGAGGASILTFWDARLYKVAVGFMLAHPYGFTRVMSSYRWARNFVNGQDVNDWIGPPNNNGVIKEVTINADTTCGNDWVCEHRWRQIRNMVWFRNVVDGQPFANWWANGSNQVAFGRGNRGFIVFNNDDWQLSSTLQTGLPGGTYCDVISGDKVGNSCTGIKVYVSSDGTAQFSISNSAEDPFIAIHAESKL
# Protocol: Porcine pancreatic α-Amylase and Yeast α-Glucosidase were purchased from SRL, Mumbai (India). Glucose oxidase (GOD POD) kit was purchased from Piramal HealthCare Ltd, Mumbai (India). All other chemicals used were of analytical grade and purchased from Sigma Aldrich, St. Louis (USA) and SRL, Mumbai (India). […] Mass spectra were determined on a Shimadzu LC-MS. The elemental analyses were carried out using an Elemental Vario Cube CHNS rapid Analyzer. The progress of the reaction was monitored by TLC pre-coated silica gel G plates.
# The α-amylase inhibition assay was performed according to a previous report. Porcine pancreatic α-amylase (3 units/mL) was dissolved in 0.1 M phosphate buffered saline, pH 6.9. […] The reaction was initiated by adding substrate solution (0.1% starch) to the incubation medium. After 10 min incubation, the reaction was stopped by adding 250 µL dinitrosalicylic (DNS) reagent (1% 3, 5-dinitrosalicylic acid, 0.2% phenol, 0.05% Na2SO3 and 1% NaOH in aqueous solution) to the reaction mixture. The reaction was terminated by keeping the reaction mixture in boiling water bath for 10 min. Thereafter, 250 µL of 40% potassium sodium tartarate solution was added to the mixtures to stabilize the colour. After cooling to room temperature in a cold water bath, the absorbance was recorded at 540 nm using a Varioskan multimode plate reader (Thermo Scientifics, USA). Acrabose was used as positive control. The percentage of inhibition was calculated using Abs Contol – Abs Sample ×100/Abs Control. Where Abs Control was the absorbance without sample, Abs sample was the absorbance of enzyme with compound.
# [6] = system: overnight fasted Wistar rats; experiment: Oral sucrose tolerance test; format: in vivo, rat
# Description: as §2, §3
# [7] = biological target: T3, α-Glucosidase (Saccharomyces cerevisiae, UniProt P53341); experiment: biochemical; details: 0–100 µM, pre-incubation 10 min 37°C, pH 6.9; NS = not significant
# T3 construct: purchased SRL, Mumbai (India)
# Protocol: Porcine pancreatic α-Amylase and Yeast α-Glucosidase were purchased from SRL, Mumbai (India). Glucose oxidase (GOD POD) kit was purchased from Piramal HealthCare Ltd, Mumbai (India). All other chemicals used were of analytical grade and purchased from Sigma Aldrich, St. Louis (USA) and SRL, Mumbai (India). All IR spectra were obtained in KBr disc on a Shimadzu FT-IR 157 Spectrometer. ^1H and ^13C NMR spectra were recorded on a Bruker WH-200 (400 MZ) spectrometer in CDCl3 or DMSO-d6 as solvent, using TMS as an internal standard and chemical shifts are expressed as ppm. Mass spectra were determined on a Shimadzu LC-MS. The elemental analyses were carried out using an Elemental Vario Cube CHNS rapid Analyzer. The progress of the reaction was monitored by TLC pre-coated silica gel G plates.
# The α-glucosidase inhibitory activities of synthesized compounds were evaluated using the method developed by Tsujii et al.. Briefly, α-glucosidase was dissolved in phosphate buffer (50 mM, pH 6.9) and pre-treated with various concentrations of 1,3-benzoxazine derivatives (0–100 µM) independently for 10 min at 37°C. The reaction was initiated by the addition of 50 µL of 5 mM p-nitrophenyl- α -D-glucopyranoside solution in phosphate buffer (50 mM, pH 6.9). The enzyme reaction was carried out at 37°C for 30 min. The reaction was terminated by the addition of Na2CO3 (1 M). The enzymatic activity of α-glucosidase was quantified by measuring the absorption at 405 nm using a Varioskan multimode plate reader (Thermo Scientifics, USA). The inhibitory effect of compounds was defined as inhibitory activity (%) = (Abs Control – Abs Compound treated)/Abs Control ×100. Concentration-response assays were used to determine the potency (IC50) of 1,3-benzoxazine derivatives based on the logistic analysis of the concentration-response curve using Microsoft Excel.
# T1 sequence (P23739 whole entry): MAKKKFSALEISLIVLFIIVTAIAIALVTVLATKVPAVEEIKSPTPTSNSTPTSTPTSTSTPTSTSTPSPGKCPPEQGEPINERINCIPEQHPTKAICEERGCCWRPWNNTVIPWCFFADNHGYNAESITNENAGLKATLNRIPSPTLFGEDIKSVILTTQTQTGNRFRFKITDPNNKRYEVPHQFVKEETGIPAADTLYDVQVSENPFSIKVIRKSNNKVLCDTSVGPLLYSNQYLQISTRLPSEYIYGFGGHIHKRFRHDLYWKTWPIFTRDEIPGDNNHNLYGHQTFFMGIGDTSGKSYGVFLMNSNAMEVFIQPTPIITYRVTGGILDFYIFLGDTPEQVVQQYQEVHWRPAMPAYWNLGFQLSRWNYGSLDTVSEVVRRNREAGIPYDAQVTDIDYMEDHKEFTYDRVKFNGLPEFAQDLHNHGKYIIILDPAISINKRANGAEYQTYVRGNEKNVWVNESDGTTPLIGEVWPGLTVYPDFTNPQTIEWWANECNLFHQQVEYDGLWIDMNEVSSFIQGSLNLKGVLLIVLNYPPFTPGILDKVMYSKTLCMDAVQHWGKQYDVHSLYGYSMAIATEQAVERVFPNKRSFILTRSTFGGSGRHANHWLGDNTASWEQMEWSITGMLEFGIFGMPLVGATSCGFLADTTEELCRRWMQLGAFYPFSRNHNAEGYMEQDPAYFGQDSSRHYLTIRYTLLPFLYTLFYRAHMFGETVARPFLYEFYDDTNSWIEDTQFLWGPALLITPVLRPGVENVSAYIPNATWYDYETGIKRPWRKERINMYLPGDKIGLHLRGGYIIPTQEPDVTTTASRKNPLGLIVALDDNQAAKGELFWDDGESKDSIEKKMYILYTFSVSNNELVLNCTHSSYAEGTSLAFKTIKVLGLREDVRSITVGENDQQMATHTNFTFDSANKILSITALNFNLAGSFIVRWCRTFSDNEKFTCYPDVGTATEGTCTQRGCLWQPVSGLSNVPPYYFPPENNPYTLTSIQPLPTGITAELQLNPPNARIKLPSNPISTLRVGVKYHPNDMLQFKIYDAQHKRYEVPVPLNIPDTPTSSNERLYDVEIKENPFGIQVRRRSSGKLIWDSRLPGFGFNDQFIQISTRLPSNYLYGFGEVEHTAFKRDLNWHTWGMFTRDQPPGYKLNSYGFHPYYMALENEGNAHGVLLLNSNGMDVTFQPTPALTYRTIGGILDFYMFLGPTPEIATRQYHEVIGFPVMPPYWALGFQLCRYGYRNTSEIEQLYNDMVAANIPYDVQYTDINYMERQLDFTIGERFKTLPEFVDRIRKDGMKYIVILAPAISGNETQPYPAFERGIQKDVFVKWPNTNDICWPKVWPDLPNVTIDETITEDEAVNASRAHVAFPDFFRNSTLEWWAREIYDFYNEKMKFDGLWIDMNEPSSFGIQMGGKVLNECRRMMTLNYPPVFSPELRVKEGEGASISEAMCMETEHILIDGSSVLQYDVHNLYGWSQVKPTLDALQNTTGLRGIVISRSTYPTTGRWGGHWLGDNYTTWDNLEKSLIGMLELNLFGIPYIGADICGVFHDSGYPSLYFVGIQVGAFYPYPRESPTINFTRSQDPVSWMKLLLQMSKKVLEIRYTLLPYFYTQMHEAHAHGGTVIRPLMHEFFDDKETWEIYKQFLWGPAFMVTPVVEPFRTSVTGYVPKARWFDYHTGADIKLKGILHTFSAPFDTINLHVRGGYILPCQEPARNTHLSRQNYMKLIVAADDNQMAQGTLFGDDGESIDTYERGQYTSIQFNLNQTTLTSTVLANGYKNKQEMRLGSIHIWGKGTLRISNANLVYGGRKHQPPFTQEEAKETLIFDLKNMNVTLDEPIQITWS
# T3 sequence (P53341 whole entry): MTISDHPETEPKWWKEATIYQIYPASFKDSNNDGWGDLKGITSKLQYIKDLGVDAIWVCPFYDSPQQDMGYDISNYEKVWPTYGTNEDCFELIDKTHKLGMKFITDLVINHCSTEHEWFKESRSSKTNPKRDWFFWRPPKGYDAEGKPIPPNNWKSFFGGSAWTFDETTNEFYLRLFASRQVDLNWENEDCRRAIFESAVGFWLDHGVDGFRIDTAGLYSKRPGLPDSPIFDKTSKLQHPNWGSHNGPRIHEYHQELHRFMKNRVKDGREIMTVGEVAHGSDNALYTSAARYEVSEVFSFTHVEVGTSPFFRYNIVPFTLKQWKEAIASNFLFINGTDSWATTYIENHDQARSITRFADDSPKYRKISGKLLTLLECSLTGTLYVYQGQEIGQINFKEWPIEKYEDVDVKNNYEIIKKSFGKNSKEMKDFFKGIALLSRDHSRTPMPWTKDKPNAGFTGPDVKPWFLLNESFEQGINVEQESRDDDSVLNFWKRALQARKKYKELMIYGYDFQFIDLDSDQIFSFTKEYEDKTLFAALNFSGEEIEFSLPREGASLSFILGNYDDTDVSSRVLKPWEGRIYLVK
compound,measurement,setting,value
"Oc1ccc(C2Nc3cc(Cl)ccc3CO2)cc1 (stereo not shown) [compound 7, 4-(7-chloro-2,4-dihydro-1H-benzo[d][1,3]oxazin-2-yl)phenol]",glucose uptake by diaphragm,[1],significantly blocked the glucose uptake both in control and insulin treated diaphragm in a dose-dependent manner
same,percentage inhibition of intestinal sucrase,[2]; compound 7 5–25 µM,dose-dependent manner
same,IC50,"[2]; rat intestinal acetone powder, sucrose 56 mM, 60 min",20 µM
same,percentage inhibition of intestinal maltase in presence of acarbose,"[3]; 5 µM acarbose with compound 7 1–10 µM, compared with intestinal sucrase",synergistically inhibited intestinal maltase more efficiently compared to intestinal sucrase
same,percentage inhibition of intestinal maltase,[3]; compound 7 5–25 µM,dose-dependent manner
same,IC50,"[3]; rat intestinal acetone powder, maltose 37 mM, 30 min",10 µM
same,selectivity for maltase over sucrase,"[3]; ratio of IC50 values, rat intestinal enzymes",two-fold selective for maltase
same,plasma glucose concentration,"[4]; 50 mg/kg oral, maltose 3 g/kg, 90 min, compared to acarbose",significantly reduced plasma glucose concentration at the 90 min time point compared to acarbose
same,plasma glucose concentration,"[4]; 100 mg/kg oral, maltose 3 g/kg, compared to acarbose standard",significantly more effective than the acarbose standard at all time points
same,plasma glucose concentration,"[4]; compound 7 50 mg/kg together with acarbose 3 mg/kg, maltose, up to 180 min, compared to saline group",plasma glucose concentration remained unchanged when compared to the saline treated group
same,IC50,[5],11 ± 0.3 µM
same,melting point,,139 to 141 °C
same,plasma glucose concentration,"[6]; 50 mg/kg oral, sucrose 3 g/kg, 0–180 min, compared to acarbose treated group",significantly reduced the plasma glucose concentration throughout all time points
same,plasma glucose concentration,"[6]; 100 mg/kg oral, sucrose 3 g/kg, compared to acarbose standard",significantly more effective than the acarbose standard at all time points
same,plasma glucose concentration,"[6]; compound 7 50 mg/kg together with acarbose 3 mg/kg, sucrose, up to 180 min, compared to saline group",plasma glucose concentration remained unchanged when compared to the saline treated group
same,IC50,[7],11.5 ± 0.1 µM
